According to US5001121A, “Cephalosporin compounds and pharmaceutical compositions thereof” (Mochida Pharmaceutical Co., Ltd., priority 1985, dated 1991):
In brackets after ≈: the same amount, converted by molar mass.

What was measured:
[1] = test system: Serratia marcescens IFO3759; test: Antibacterial activity in vitro, agar plate dilution method (MIC); assay type: cell-based; details: Mueller Hinton agar, 10^6 cells/ml, 37° C., 20 hours
Method: (§1) Antibacterial activity in vitro was determined in accordance with the agar plate dilution method. A platinum loop each of test bacteria (10^6 cells/ml), cultured in Mueller Hinton broth, was inoculated on Mueller Hinton agar plates which contained test compounds at various concentrations. After cultivating at 37° C. for 20 hours, the minimum inhibitory concentration (MIC μg/ml) was determined.

[2] = test system: Klebsiella pneumoniae IFO3317; test: as above; assay type: cell-based; details: Mueller Hinton agar, 10^6 cells/ml, 37° C., 20 hours
Method: as §1

[3] = test system: Staphylococcus aureus Smith; test: as above; assay type: cell-based; details: Mueller Hinton agar, 10^6 cells/ml, 37° C., 20 hours
Method: as §1

[4] = test system: Pseudomonas aeruginosa IFO3445; test: as above; assay type: cell-based; details: Mueller Hinton agar, 10^6 cells/ml, 37° C., 20 hours
Method: as §1

[5] = test system: Escherichia coli 67; test: as above; assay type: cell-based; details: Mueller Hinton agar, 10^6 cells/ml, 37° C., 20 hours
Method: as §1

[6] = test system: Staphylococcus aureus 242 (methicillin-resistant strain); test: Protection ability against systemic infection; assay type: in vivo, ICR mice; details: in Mus musculus, iv, 168 h, Table 2-a, i.p. infection, i.v. compound 1 hour later, survival at 1 week, read-out: ED50
Method: (§2) Protection ability against systemic infection was determined as follows. An aqueous suspension of test bacteria was intraperitoneally injected into 10 four week old ICR mice. One hour after the infection, test compounds were intravenously administered. The number of surviving mice was counted 1 week after injection to determine the dose at which 50% of the test animals were alive (ED50 :mg/kg).

[7] = LD50, Probit method; details: in vivo, iv
Method: Next, LD50 of representative examples of the compounds of the present invention is shown in Table 3 wherein LD50 was determined in accordance with the Probit method.

[8] = test system: Serratia marcescens 274; test: Protection ability against systemic infection; assay type: in vivo, ICR mice; details: in Mus musculus, iv, 168 h, Table 2-b, i.p. infection, i.v. compound 1 hour later, survival at 1 week, read-out: ED50
Method: as §2

Row | SMILES | MIC [1] [µg/mL] | MIC [2] [µg/mL] | MIC [3] [µg/mL] | MIC [4] [µg/mL] | MIC [5] [µg/mL] | ED50 [6] [mg/kg] | LD50 [7] [mg/kg] | ED50 [8] [mg/kg]
1 | Cc1cc(SCC2=C(C(=O)O)N3C(=O)[C@@H](NC(=O)/C(=N\OC(C)(C(=O)O)c4ccc(O)c(O)c4)c4csc(N)n4)[C@H]3SC2)n2nc(C(=O)O)nc2n1 (stereo partly drawn) [Compound 11, (6R,7R)-7-[2-(2-amino-4-thiazolyl)-2-[Z-[1-carboxy-1-(3,4-dihydroxyphenyl)ethyl]oxyimino]acetamido]-3-[(2-carboxy-5-methyl-s-triazolo[1,5-a]pyrimidin-7-yl)thiomethyl]-8-oxo-5-thia-1-azabicyclo[4.2.0]oct-2-ene-2-carboxylic acid] | 0.2 (≈ 0.259 µM) | < 0.05 | 0.78 (≈ 1.01 µM) | 0.78 (≈ 1.01 µM) | < 0.05 |  |  | 
2 | CC(=O)Oc1cc(C(=O)O)c(CO/N=C(\C(=O)N[C@@H]2C(=O)N3C(C(=O)O)=C(CSc4cc(C)nc5nc(C(=O)O)nn45)CS[C@H]23)c2csc(N)n2)cc1O [Compound 5, (6R,7R)-7-[2-(2-amino-4-thiazolyl)-2-[Z-[(4-acetoxy-2-carboxy-5-hydroxyphenyl)-methyl]oxyimino]acetamido]-3-[(2-carboxy-5-methyl-s-triazolo-[1,5-a]pyrimidin-7-yl)thiomethyl]-8-oxo-5-thia-1-azabicyclo[4.2.0]oct-2-ene-2-carboxylic acid] | < 0.05 | < 0.05 | 1.56 (≈ 1.95 µM) | 0.2 (≈ 0.25 µM) | < 0.05 |  |  | 
3 | Cc1cc(SCC2=C(C(=O)O)N3C(=O)[C@@H](NC(=O)C(NC(=O)c4ccc(O)c(O)c4)c4csc(N)n4)[C@H]3SC2)n2nc(C(=O)O)nc2n1 (stereo partly drawn) [Compound 17, (6R,7R)-7-[2-(2-amino-4-thiazolyl)-2-(3,4-dihydroxybenzoylamino)acetamido]-3-[(2-carboxy-5-methyl-s-triazolo [1,5-a]pyrimidin-7-yl)thiomethyl]-8-oxo-5-thia-1-azabicyclo[4.2.0]oct-2-ene-2-carboxylic acid] | < 0.05 | < 0.05 | 3.13 (≈ 4.39 µM) | 1.56 (≈ 2.19 µM) | < 0.05 |  |  | 
4 | CC(=O)Oc1ccc([C@H](O/N=C(\C(=O)N[C@@H]2C(=O)N3C(C(=O)O)=C(CSc4cc(C)nc5nc(C(=O)O)nn45)CS[C@H]23)c2csc(N)n2)C(=O)O)cc1OC(C)=O [Compound 7, (6R,7R)-7-[2-(2-amino-4-thiazolyl)-2-[Z-[(S)-carboxy(3,4-diacetoxyphenyl)methyl]oxyimino]acetamido]-3-[(2-carboxy-5-methyl-s-triazolo-[1,5-a]pyrimidin-7-yl)thiomethyl]-8-oxo-5-thia-1-azabicyclo[4.2.0]oct-2-ene-2-carboxylic acid] | 0.1 (≈ 0.119 µM) | < 0.05 |  | 1.56 (≈ 1.85 µM) | 0.2 (≈ 0.238 µM) |  |  | 
5 | Cc1cc(SCC2=C(C(=O)O)N3C(=O)[C@@H](NC(=O)/C(=N\OC(C(=O)O)c4cc(O)c(O)c(O)c4)c4csc(N)n4)[C@H]3SC2)n2nc(C(=O)O)nc2n1 (stereo partly drawn) [Compound 12, (6R,7R)-7-[2-(2-amino-4-thiazolyl)-2-[Z-[carboxy(3,4,5-trihydroxyphenyl)-methyl]oxyimino]acetamido]-3-[(2-carboxy-5-methyl-s-triazolo[l,5-a]pyrimidin-7-yl)thiomethyl]-8-oxo-5-thia-l-azabicyclo [4 2.0]oct-2-ene-2-carboxylic acid] |  | < 0.05 | 0.78 (≈ 1.01 µM) | 6.25 (≈ 8.08 µM) | 1.1 (≈ 1.42 µM) |  |  | 
6 | Nc1nc(/C(=N/OC(C(=O)O)c2ccc(O)c(O)c2)C(=O)N[C@@H]2C(=O)N3C(C(=O)[O-])=C(C[n+]4ccccc4)CS[C@H]23)cs1 (stereo partly drawn) [Compound 14, (6R,7R)-7-[2-(2-amino-4-thiazolyl)-2-[Z-[carboxy(3 4-dihydroxyphenyl)methyl]-oxyimino]acetamido]-3-(pyridiniummethyl)-8-oxo-5-thia-l-azabicyclo[4.2.0]oct-2-ene-2-carboxylate] | 0.39 (≈ 0.622 µM) | 0.1 (≈ 0.16 µM) | 0.78 (≈ 1.24 µM) | 1.56 (≈ 2.49 µM) | 0.39 (≈ 0.622 µM) |  |  | 
7 | Cn1nnnc1SCC1=C(C(=O)O)N2C(=O)[C@@H](NC(=O)[C@H](O)c3ccccc3)[C@H]2SC1 [CMD, Cefamandole, reference compound] |  |  |  |  |  | 31 |  | 
8 | Cc1cc(SCC2=C(C(=O)O)N3C(=O)[C@@H](NC(=O)/C(=N\OC(C)(C)C(=O)c4ccc(O)c(O)c4)c4csc(N)n4)[C@H]3SC2)n2nc(C(=O)O)nc2n1 [Compound 6, (6R,7R)-7-[2-(2-amino-4-thiazolyl)-2-[Z-[1-(3,4-dihydroxybenzoyl)-1-methylethyl]oxyimino]acetamido]-3-[(2-carboxy-5-methyl-s-triazolo-[1,5-a]pyrimidin-7-yl)thiomethyl]-8-oxo-5-thia-1-azabicyclo[4.2.0]oct-2-ene-2-carboxylicacid] | < 0.05 | < 0.05 | 6.25 (≈ 8.12 µM) | 0.78 (≈ 1.01 µM) | < 0.05 |  | > 1000 | 
9 | Nc1nc(/C(=N/O[C@H](C(=O)O)c2ccc(O)c(O)c2)C(=O)N[C@@H]2C(=O)N3C(C(=O)[O-])=C(C[n+]4cccc5c4CCC5)CS[C@H]23)cs1 [Compound 16, (6R,7R)-7-[2-(2-amino-4-thiazolyl)-2-[Z-[(S)-carboxy(3,4-dihydroxyphenyl)methyl]oxyimino]acetamido]-3-(2,3-cyclopentenopyridiniummethyl)-8-oxo-5-thia-1-azabicyclo [4.2.0]oct-2-ene-2-carboxylate] | 0.1 (≈ 0.15 µM) | < 0.05 | 0.78 (≈ 1.17 µM) | 0.39 (≈ 0.585 µM) | 0.1 (≈ 0.15 µM) |  | > 1000 | 
10 | Nc1nc(/C(=N/O[C@H](C(=O)O)c2ccc(O)c(O)c2)C(=O)N[C@@H]2C(=O)N3C(C(=O)[O-])=C(C[n+]4ccccc4)CS[C@H]23)cs1 [Compound 15, (6R,7R)-7-[2-(2-amino-4-thiazolyl)-2-[Z-[(S)-carboxy(3,4-dihydroxyphenyl)methyl]oxyimino]acetamido]-3-(pyridiniummethyl)-8-oxo-5-thia-1-azabicyclo[4.2.0]oct-2-ene-2-carboxylate] | 0.1 (≈ 0.16 µM) | < 0.05 | 0.78 (≈ 1.24 µM) | 0.39 (≈ 0.622 µM) | 0.1 (≈ 0.16 µM) |  | > 1000 | 
11 | Cc1cc(=O)n2nc(SCC3=C(C(=O)O)N4C(=O)[C@@H](NC(=O)/C(=N\OC(=O)c5cc(O)c(O)cc5C)c5csc(N)n5)[C@H]4SC3)sc2n1 [Compound 4] | < 0.05 | < 0.05 | 0.39 (≈ 0.534 µM) | 3.13 (≈ 4.28 µM) | 0.78 (≈ 1.07 µM) |  | > 1000 | 
12 | CC(=O)Oc1ccc([C@@H](O/N=C(\C(=O)N[C@@H]2C(=O)N3C(C(=O)O)=C(CSc4cc(C)nc5nc(C(=O)O)nn45)CS[C@H]23)c2csc(N)n2)C(=O)O)cc1OC(C)=O [Compound 8, (6R,7R)-7-[2-(2-amino-4-thiazolyl)-2-[Z-[(R)-carboxy(3,4-diacetoxyphenyl)-methyl]oxyimino]acetamido]-3-[(2-carboxy-5-methyl-s-triazolo[l,5-a]pyrimidin-7-yl)thiomethyl]-8-oxo-5-thia-1-azabicyclo [4.2.0]oct-2-ene-2-carboxyl-acid] | 0.1 (≈ 0.119 µM) | < 0.05 |  | 3.13 (≈ 3.72 µM) | 0.2 (≈ 0.238 µM) |  |  | 10.5
13 | Cc1cc(SCC2=C(C(=O)O)N3C(=O)[C@@H](NC(=O)/C(=N\O[C@@H](C(=O)O)c4ccc(O)c(O)c4)c4csc(N)n4)[C@H]3SC2)n2nc(C(=O)O)nc2n1 [Compound 10, (6R,7R)-7-[2-(2-amino-4-thiazolyl)-2-[Z-[(R)-carboxy(3,4-dihydroxyphenyl)-methyl]oxyimino]acetamido]-3-[(2-carboxy-5-methyl-s-triazolo[1,5-a]pyrimidin-7-yl)thiomethyl]-8-oxo-5-thia-1-azabicyclo[4.2.0]oct-2-ene-2-carboxylic acid] | 0.1 (≈ 0.132 µM) | < 0.05 | 0.78 (≈ 1.03 µM) | 6.25 (≈ 8.25 µM) | 0.2 (≈ 0.264 µM) |  |  | 28.6
14 | Cc1cc(SCC2=C(C(=O)O)N3C(=O)[C@@H](NC(=O)/C(=N\OC(=O)c4cc(O)c(O)c(O)c4)c4csc(N)n4)[C@H]3SC2)n2nc(C(=O)O)nc2n1 [Compound 1, (6R,7R)-7-[2-(2-amino-4-thiazolyl)-2-[Z-(3,4,5-trihydroxybenzoyl)oxyimino]acetamido]-3-[(2-carboxy-5-methyl-s-triazolo[l,5-a]-pyrimidin-7-yl)thiomethyl]-8-oxo-5-thia-l-azabicyclo [4.2.0]oct-2-ene-2-carboxylic acid] | < 0.05 | < 0.05 | 0.78 (≈ 1.05 µM) | 3.13 (≈ 4.21 µM) | < 0.05 |  | > 1000 | 
15 | Nc1nc(/C(=N/OC(C(=O)O)c2ccc(O)c(O)c2)C(=O)N[C@@H]2C(=O)N3C(C(=O)O)=C(CSc4cc(C(=O)O)c5nnnn5n4)CS[C@H]23)cs1 (stereo partly drawn) [Compound 13, (6R,7R)-7-[2-(2-amino-4-thiazolyl)-2-[Z-[carboxy(3,4-dihydroxyphenyl)methyl]oxyimino]acetamido]-3-[(8-carboxytetrazolo [1,5-b]pyridazin-6-yl)thiomethyl]-8-oxo-5-thia-1-azabicyclo[4.2.0]oct-2-ene-2-carboxylic acid] | 0.2 (≈ 0.269 µM) | < 0.05 | 1.56 (≈ 2.09 µM) | 0.78 (≈ 1.05 µM) | 0.2 (≈ 0.269 µM) |  | > 1000 | 1.05
